Results on nine substances are retold here after patent US8450441B2, “Synthetic N-linked sialo-glycan-containing polymer and method for producing the same” (priority 2007, dated 2013).

The test system of one assay is A/Aichi/2/68 (H3N2). It counts as cell-based, Influenza A virus (Human strain). To be noted: for IC50: read-out: HI activity IC50.
Assay [1] relates to A/Duck/HK/313/4/78 (H5N3). It is filed as cell-based, Influenza A virus (Avian strain). To be noted: read-out: HI activity IC50.

Take “Poly[N-(ε-aminocaproyl)-β-lacto-N-neotetraosylamine/-γ-PGA]]”: the concentration for half-maximal inhibition (IC50) (in the assay with A/Aichi/2/68 (H3N2); in assay [1]) was over 200 nM in each case.
With “Poly[Neu5Ac α2-6-N-acetyllactosaminylamine β-N-(ε-aminocaproyl)/γ-PGA]”, in the assay with A/Aichi/2/68 (H3N2), the “inhibition activity of human influenza virus infection compared with conventional O-linked sialo-glycan-containing polymer” value is on record as “many times greater”. Also, the IC50 was 1.2 nM with A/Aichi/2/68 (H3N2) and over 200 nM in assay [1].
As for “Poly[Neu5Ac α2-3-N-acetyllactosaminylamine β-N-(ε-aminocaproyl)/γ-PGA]”, the IC50 (with A/Aichi/2/68 (H3N2); in assay [1]) was 37.5 nM in each case.
In the case of “Poly[N-(ε-aminocaproyl)-β-N-acetyllactosaminylamine/-γ-PGA]]”, the 50% inhibitory concentration (IC50) (in the assay with A/Aichi/2/68 (H3N2); in assay [1]) was over 200 nM in each case.
In the case of “Poly[Neu5Ac α2-6lactosylamine β-N-(ε-aminocaproyl)/γ-PGA]”, the figures for the IC50 (in the assay with A/Aichi/2/68 (H3N2); in assay [1]) were 4.7 nM and over 200 nM, respectively.
In the same order, the values of “Poly[Neu5Ac α2-3lactosylamine β-N-(ε-aminocaproyl)/γ-PGA]” are 37.5 nM and 37.5 nM.
Take “Poly[Neu5Ac α2-3lacto-N-neotetraosylamine β-N-(ε-aminocaproyl)/γ-PGA]”: the values for the half-maximal inhibitory concentration (IC50) (with A/Aichi/2/68 (H3N2); in assay [1]) were 18.8 nM and 37.5 nM, respectively.
On the same counts, the results for “Poly[N-(ε-aminocaproyl)-β-lactosylamine/-γ-PGA]]” are over 200 nM and over 200 nM.
For the substance “Poly[Neu5Ac α2-6-lacto-N-neotetraosylamine β-N-(ε-aminocaproyl)/γ-PGA]”, in the assay with A/Aichi/2/68 (H3N2), the “inhibition activity of human influenza virus infection compared with Poly[Neu5Ac α2-6-LacNAc β-N-(ε-aminocaproyl/γ-PGA]” value was “many more times greater” and the IC50 is 0.29 nM. In addition, the IC50 in assay [1] was over 200 nM.
